Patent publication US20240009173A1, “Use of 5-HT3-Targeting Drugs for Treatment of Acute Kidney Injury” (priority 2020, published 2024)
Like-named read-outs stand apart in the source and are kept apart here.

Key:
patients with AKI [1] = details: human, in vivo
patients with AKI [2] = details: human, in vivo; remark: listed apart in the source
ICU patients with AKI = details: cited from earlier work
all ICU patients = details: cited from earlier work
patients with AKI [3] = system: patients with AKI; design: species or system human; details: in vivo
[4] = literature and/or clinical trials

Compound | Death rate in MIMIC III database (patients with AKI [1]) | Death rate in eICU database (patients with AKI [2]) | Reported for protecting effect in ICU patients with AKI (ICU patients with AKI; [4]) | Reported for protecting effect in all ICU patients (all ICU patients; [4]) | Coefficient (patients with AKI [3]) | Reported for protecting effect in ICU patients with AKI (ICU patients with AKI) | Reported for protecting effect in all ICU patients (all ICU patients)
OC[C@H]1O[C@@H](O[C@@H]2[C@@H](CO)OC(O)(CO)[C@H]2O)[C@H](O)[C@@H](O)[C@H]1O (mixture of isomers) [Lactulose] | 326.35 per 1,000 patients | 233.56 per 1,000 patients | N | N | – | – | –
CC(=O)Nc1ccc(O)cc1 [Acetaminophen] | 181.26 per 1,000 patients | 123.47 per 1,000 patients | N | N | −0.040 | – | –
CC(C)(C)NCC(O)c1ccc(O)c(CO)c1 (stereo not shown) [Albuterol] | 257.20 per 1,000 patients | 174.59 per 1,000 patients | – | – | – | – | –
CCCCc1oc2ccccc2c1C(=O)c1cc(I)c(OCCN(CC)CC)c(I)c1 [Amiodarone] | 338.95 per 1,000 patients | 269.89 per 1,000 patients | N | N | 0.090 | – | –
CC(=O)Oc1ccccc1C(=O)O [Aspirin] | 178.97 per 1,000 patients | 126.32 per 1,000 patients | – | – | – | – | –
CC(C)c1c(C(=O)Nc2ccccc2)c(-c2ccccc2)c(-c2ccc(F)cc2)n1CC[C@@H](O)C[C@@H](O)CC(=O)O [Atorvastatin] | 156.06 per 1,000 patients | 88.66 per 1,000 patients | – | – | – | – | –
CC(=O)Oc1ccc(C(c2ccc(OC(C)=O)cc2)c2ccccn2)cc1 [Bisacodyl] | 194.46 per 1,000 patients | 156.59 per 1,000 patients | – | – | −0.021 | – | –
C[C@H](CS)C(=O)N1CCC[C@H]1C(=O)O [Captopril] | 133.04 per 1,000 patients | – | Y^19 | Y^18 | −0.044 | – | –
CO/N=C(\C(=O)N[C@@H]1C(=O)N2C(C(=O)[O-])=C(C[N+]3(C)CCCC3)CS[C@H]12)c1csc(N)n1 [Cefepime] | 340.81 per 1,000 patients | 228.51 per 1,000 patients | – | – | – | – | –
[H]/N=C(\N/C(=N/[H])NCCCCCCNC(=N)NC(=N)Nc1ccc(Cl)cc1)Nc1ccc(Cl)cc1 [Chlorhexidine] | 328.48 per 1,000 patients | 222.98 per 1,000 patients | – | – | – | – | –
C[C@@H]1C[C@H]2[C@@H]3CCC4=CC(=O)C=C[C@]4(C)[C@@]3(F)[C@@H](O)C[C@]2(C)[C@@]1(O)C(=O)CO [Dexamethasone] | 375 per 1,000 patients | 58.14 per 1,000 patients | – | – | – | – | –
COc1ccc([C@@H]2Sc3ccccc3N(CCN(C)C)C(=O)[C@@H]2OC(C)=O)cc1 [Diltiazem] | 274.96 per 1,000 patients | 121.74 per 1,000 patients | – | – | – | – | –
CCCCC(CC)COC(=O)CC(C(=O)OCC(CC)CCCC)S(=O)(=O)O (stereo not shown) [Docusate] | 178.57 per 1,000 patients | 136.48 per 1,000 patients | N | N | −0.028 | – | –
NC(N)=Nc1nc(CSCCC(N)=NS(N)(=O)=O)cs1 [Famotidine] | 260.79 per 1,000 patients | 184.42 per 1,000 patients | – | – | – | – | –
OC(Cn1cncn1)(Cn1cncn1)c1ccc(F)cc1F [Fluconazole] | 333.33 per 1,000 patients | – | Y^6 | Y^5 | – | – | –
NS(=O)(=O)c1cc(C(=O)O)c(NCc2ccco2)cc1Cl [Furosemide] | 214.64 per 1,000 patients | 120.87 per 1,000 patients | Y^8 | Y^7 | −0.036 | – | –
O=C(CCCN1CCC(O)(c2ccc(Cl)cc2)CC1)c1ccc(F)cc1 [Haloperidol] | 194.85 per 1,000 patients | 201.23 per 1,000 patients | N | N | −0.063 | – | –
NNc1nncc2ccccc12 [Hydralazine] | 155.12 per 1,000 patients | 80.60 per 1,000 patients | – | – | −0.035 | – | –
CC(C)[N+]1(C)[C@@H]2CC[C@H]1C[C@@H](OC(=O)C(CO)c1ccccc1)C2 (stereo partly shown) [Ipratropium] | 258.87 per 1,000 patients | 172.83 per 1,000 patients | – | – | – | – | –

Compound | Death rate in MIMIC III database (patients with AKI [1]) | Death rate in eICU database (patients with AKI [2]) | Reported for protecting effect in ICU patients with AKI (ICU patients with AKI; [4]) | Reported for protecting effect in all ICU patients (all ICU patients; [4]) | Coefficient (patients with AKI [3]) | Reported for protecting effect in ICU patients with AKI (ICU patients with AKI) | Reported for protecting effect in all ICU patients (all ICU patients)
C[C@H]1COc2c(N3CCN(C)CC3)c(F)cc3c(=O)c(C(=O)O)cn1c23 [Levofloxacin] | 270.20 per 1,000 patients | 146.84 per 1,000 patients | – | – | – | – | –
N[C@@H](Cc1cc(I)c(Oc2cc(I)c(O)c(I)c2)c(I)c1)C(=O)O [Levothyroxine] | 218.39 per 1,000 patients | 109.02 per 1,000 patients | – | – | – | – | –
NCCCC[C@H](N[C@@H](CCc1ccccc1)C(=O)O)C(=O)N1CCC[C@H]1C(=O)O [Lisinopril] | 53.11 per 1,000 patients | 21.71 per 1,000 patients | Y^15 | Y^14 | −0.049 | – | –
O=C1Nc2ccc(Cl)cc2C(c2ccccc2Cl)=NC1O (stereo not shown) [Lorazepam] | 285.59 per 1,000 patients | 228.92 per 1,000 patients | – | – | 0.031 | N | N
O=S(=O)([O-])[O-].[Mg+2] [Magnesium Sulfate] | 203.36 per 1,000 patients | 172.14 per 1,000 patients | – | – | −0.054 | Y^4 | Y^3
C[C@@H](O)[C@H]1C(=O)N2C(C(=O)O)=C(S[C@@H]3CN[C@H](C(=O)N(C)C)C3)[C@H](C)[C@H]12 [Meropenem] | 460.50 per 1,000 patients | 269.96 per 1,000 patients | Y^13 | Y^12 | 0.076 | – | –
COCCc1ccc(OCC(O)CNC(C)C)cc1 (stereo not shown) [Metoprolol] | 169.99 per 1,000 patients | 107.87 per 1,000 patients | N | Y^11 | −0.051 | – | –
Cc1ncc([N+](=O)[O-])n1CCO [Metronidazole] | 338.05 per 1,000 patients | 230.12 per 1,000 patients | – | – | – | – | –
O=[N+]([O-])OCC(CO[N+](=O)[O-])O[N+](=O)[O-] [Nitroglycerin] | 192.42 per 1,000 patients | 758.55 per 1,000 patients | – | – | – | N | N
COc1ccnc(C[S+]([O-])c2nc3ccc(OC(F)F)cc3[nH]2)c1OC (stereo not shown) [Pantoprazole] | 254.46 per 1,000 patients | 151.82 per 1,000 patients | – | – | −0.025 | – | –
CC1=C(C/C=C(\C)CCC[C@H](C)CCC[C@H](C)CCCC(C)C)C(=O)c2ccccc2C1=O [Phytonadione] | 364.17 per 1,000 patients | 335.33 per 1,000 patients | N | Y | – | – | –
CCN1CCN(C(=O)N[C@@H](C(=O)N[C@@H]2C(=O)N3[C@@H]2SC(C)(C)[C@@H]3C(=O)O)c2ccccc2)C(=O)C1=O [Piperacillin] | 336.96 per 1,000 patients | 200.39 per 1,000 patients | N | Y | – | – | –
C[C@]12C=CC(=O)C=C1CC[C@@H]1[C@@H]2C(=O)C[C@@]2(C)[C@H]1CC[C@]2(O)C(=O)CO [Prednisone] | 191.30 per 1,000 patients | 60.49 per 1,000 patients | – | – | – | – | –
CC(C)c1cccc(C(C)C)c1O [Propofol] | 287.82 per 1,000 patients | 261.45 per 1,000 patients | – | – | – | Y^17 | Y^16
C=CC[C@@H]1/C=C(\C)C[C@H](C)C[C@H](OC)[C@H]2O[C@@](O)(C(=O)C(=O)N3CCCC[C@H]3C(=O)O[C@H](/C(C)=C/[C@@H]3CC[C@@H](O)[C@H](OC)C3)[C@H](C)[C@@H](O)CC1=O)[C@H](C)C[C@@H]2OC [Tacrolimus] | 153.28 per 1,000 patients | 40 per 1,000 patients | – | – | – | – | –
CN[C@H](CC(C)C)C(=O)N[C@H]1C(=O)N[C@@H](CC(N)=O)C(=O)N[C@H]2C(=O)N[C@H]3C(=O)N[C@H](C(=O)N[C@H](C(=O)O)c4cc(O)cc(O)c4-c4cc3ccc4O)[C@H](O)c3ccc(c(Cl)c3)Oc3cc2cc(c3O[C@@H]2O[C@H](CO)[C@@H](O)[C@H](O)[C@H]2O[C@H]2C[C@](C)(N)[C@H](O)[C@H](C)O2)Oc2ccc(cc2Cl)[C@H]1O [Vancomycin] | 300.03 per 1,000 patients | 229.29 per 1,000 patients | – | – | – | – | –
Glucagon | 176.04 per 1,000 patients | 129.74 per 1,000 patients | – | – | −0.050 | – | –
Insulin | 241.12 per 1,000 patients | 172.01 per 1,000 patients | – | – | – | – | –
